Data published in patent publication US20140248212A1, “NON-IMMUNOGENIC POSITRON EMISSION TOMOGRAPHY REPORTER GENE SYSTEMS” (THE REGENTS OF THE UNIVERSITY OF CALIFORNIA, priority 2011, published 2014).
Entries after “also recorded” stand apart in the source; their conditions may differ.

How the values were obtained:
Baf-3 cells = experiment: Test of mutant htk2 reporter genes in Baf-3 cells; type: cell-based
From the text: The sensitivity of the described mutant htk2 imaging reporter genes can be evaluated through cell culture assays and PET imaging in mouse tumor models. […] Further tests regarding the effect of expressing these reporter genes on various cells can be used to determine other potential targets. […] Several enhanced htk2 mutant reporter genes have been designed and tested. Though the examples herein describe different probes and investigate the L probes mainly in mice, other mammals and in particular, humans are also within the scope of the invention. Silico models can be used to derive additional enhanced mutants from human htk2.

[1] = system: TK2-N93D-expressing L1210 cells; experiment: L-18F-FMAU uptake assay, transduced L1210 cells (TK2-N93D); type: cell-based, murine
From the text: To overcome the negative feedback limitation of TK2, a point mutation-N93D, was engineered. The work done by Piskur and colleagues on the structurally related Drosophila melanogaster deoxyribonucleoside kinase (see, e.g. Welin, M., et al. FEBS J 272:3733-3742, 2005) led one to predict that the N93D mutation would reduce the feedback inhibition of TK2 by dTTP. This prediction was confirmed by a comparison between the wild type (WT) and the TK2-N93D mutant in a kinase assay in which increasing concentrations of dTTP were added to inhibit TK2 enzymatic activity (FIG. 8B). We then determined whether the enhanced resistance to feedback inhibition translates into improved TK2-N93D catalytic activity towards the L-[^18F]FMAU substrate. The murine leukemic cell line L1210 was engineered to express the WT and mutated PRG. PRG-expressing L1210 cell lines were sorted to similar levels of gene expression, using enhanced yellow fluorescent protein (eYFP) as a co-linked fluorescent marker. […] It was also examined whether the expression of TK2-N93D had detrimental effects on cellular physiology (criterion 4 for PRGs). […] In contrast, sr39tk overexpression induced a 4-fold increase in dTTP pools (FIG. 9C). […] These findings provide evidence that the utility of sr39tk is limited not only by its immunogenicity but also by its effects on normal cellular physiology.
The L1210 cell line (see, e.g. Jordheim, L. P., et al. (2004) Clin. Cancer Res. 10, 5614-5621) was a gift. Cells were cultured at 5% v/v CO2 and 37° C. in RPMI supplemented with 5% v/v FCS. […]
L1210 cells transduced with the indicated PET reporter genes (L1210-PRG) were seeded at a density of 500,000 cells/well in 24-well plates. […] Radioactivity was measured using a gamma counter.

[2] = Biodistribution of PET reporter probes in mice (microPET/CT); type: in vivo, C57/BL6 mice
Procedure: To identify candidate PRPs, eight nucleoside analogs (FIG. 7A) were synthesized that were amenable to ^18F labeling (the first criterion for PRPs). To identify PRP candidates with rapid clearance from normal tissues and low overall background (second criterion for PRGs), biodistribution studies in mice were performed. It was observed that natural (D) nucleosides had higher background than non-natural (L) nucleoside analogs. […] The next step was to identify a human nucleoside kinase that phosphorylates L-[^18F]FMAU and L-[^18F]FEAU, and can be converted into a new PRG that matches four criteria:
Initially, a group of nucleoside analogs amenable to fluorine-18 labeling were identified. These PET tracers, 5 of which were novel, were then screened to determine their biodistribution in C57/BL6 mice (n=3 for each PET tracer) through dynamic microPET scans. […] Rational design is utilized to introduce mutations into human nucleoside kinase thymidine kinase 2 (TK2) to improve the affinity of the kinase for the top candidate probe. The sensitivity and specificity of the novel PET reporter probe/gene pair was then determined in vitro and in vivo using a murine cancer model.
Animal studies were approved and carried out according to specific guidelines. C57/BL6 mice were injected with the indicated probe and underwent micro-PET/CT analyses at 1- and 3-h post probe injection (Inveon, Siemens Medical Solutions USA Inc.; microCAT; Imtek Inc.). For tumor imaging studies, SCID mice were injected subcutaneously on day −7 in the right and left flanks with 1×10^6 L1210-PRG-expressing cells in 50% v/v phosphate-buffered saline and 50% v/v Matrigel™ (BD Biosciences). For imaging experiments, mice were kept warm and under gas anesthesia (2% v/v isoflurane) and were injected intravenously with 200 μCi of ^18F-labeled probes. A 3-h interval was allowed between probe administration and microPET/CT scanning Static microPET images were acquired for 600 s. Image data were evaluated in three-dimensional histograms and reconstructed with a zoom factor of 2.1 using three-dimensional ordered set expectation maximization (OSEM) with 2 iterations followed by MAP (maximum a posteriori) reconstruction with 18 iterations (beta=0.1). Images were analyzed using OsiriX Imaging Software Version 3.8.

[3] = Human whole-body PET/CT biodistribution of PET reporter probes; type: in vivo; details: for accumulation in myocardium / heart and liver: healthy volunteers; for intestinal / GI tract activity compared with 18F-FHBG / tracer background within abdomen and pelvis: human; for tracer background within abdomen and pelvis: whole-body PET/CT
From the text: All studies involving human volunteers were approved. A healthy person and a healthy volunteer were recruited for the L-^18F-FMAU biodistribution study. Each volunteer received a bolus intravenous injection of ˜56 MBq (1.5 mCi) sterile L-^18F-FMAU and had four consecutive whole-body (starting from just above the head to above the knees, 6 bed positions, 5-min scan at each bed position) PET scans (Biograph 64, Siemens), with the first scan starting shortly after intravenous injection of L-^18F-FMAU. A low dose CT scan was also obtained for attenuation correction. Volunteers urinated after all scans had been performed. The region of interest analysis was performed to measure mean standard uptake values of L-^18F-FMAU in major organs/tissues. To illustrate the biodistribution of ^18F-FHBG, unpublished scan from a previous study (see, e.g. Yaghoubi, S. S., et al. (2009) Nat. Clin. Pract. Oncol. 6, 53-58) was used.

Cc1cn([C@H]2O[C@@H](CO)[C@H](O)[C@H]2[18F])c(=O)[nH]c1=O [L-^18F-FMAU, 2′-deoxy-2′-^18F-5-methyl-1-β-L-arabinofuranosyluracil]
test of reporter system with probe (Baf-3 cells): successfully tested
increase in L-18F-FMAU uptake relative to cells expressing WT TK2 ([1]; 1 h uptake, FIG. 27C): 1.5 fold
L-[18F]FMAU accumulation compared to WT TK2 transduced cells ([1]; FIG. 8C): increased accumulation; also recorded: increased uptake
decrease of L-18F-FMAU uptake ([1]; in the presence of 5 μM D-dT): 75%
accumulation in the liver ([2]; 1-h post injection (data not shown)): accumulates in the liver
accumulation in the liver ([2]; 3-h time point): neither probe showed any accumulation
accumulation in the gallbladder ([2]; 3 h after administration): 1.68±0.46 % injected dose/g
retention in the thoracic cavity ([2]; 3 h after administration): very low retention
signals in the GI tract ([2]; 3 h after administration): only detected in the lower GI tract
overall background (biodistribution) ([2]; candidate 18F nucleoside analog probes in mice, FIG. 7B): lowest overall background
non-specific GI signals ([2]; increasing uptake time from 1 to 3 hours): almost completely eliminated
GI activity compared with 18F-FHBG-injected mice ([2]; mice): significantly less intense
tissues with relatively high signals ([3]; 2 h post-administration): relatively high signals were observed in liver, kidneys, gall bladder, bladder, and the GI tract
liver activity compared with 18F-FHBG ([3]; at 2 h): more intense activity
uptake pattern in healthy volunteer ([3]; first in human study, FIG. 20): mainly in its clearance routes, liver and bladder, with relatively low accumulation in intestines and some accumulation in the heart
accumulation in myocardium / heart and liver [3]: accumulation was also observed in the myocardium; also recorded: accumulates in the myocardium and liver
accumulation in myocardium / heart and liver ([3]; listed as L-[^18F]FMAU): accumulates in these tissues
intestinal / GI tract activity compared with 18F-FHBG [3]: lower than that of ^18F-FHBG
intestinal / GI tract activity compared with 18F-FHBG ([3]; listed as 18F-L-FMAU): lower intestinal background
tracer background within abdomen and pelvis ([3]; listed as L-[^18F]-FMAU): very low background in abdominal cavity
tracer background within abdomen and pelvis ([3]; listed as L-[^18F]FMAU): very low tracer background
